# Measurements: patent publication US20160046618A1, “Cyclopropyl Fused Thiazin-2-Amine Compounds as Beta-Secretase Inhibitors and Methods of Use” (AMGEN INC., priority 2014, published 2016)
# Legend:
# Recombinant Cat D = Recombinant Cat D (Homo sapiens (Human), UniProt P07339); test: In vitro enzymatic Cathepsin D (Cat D) FRET assay; format: biochemical; conditions: read-out: IC50 IP (μM) CatD
# In short: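 Fluorescence at 500 nm excitation and 580 nm emission reports cleavage of a quenched fluorophore–quencher peptide (20 nM) by CHO-expressed Cat D. Reactions ran one hour in 0.05 M citrate pH 3.5, 5 mM CHAPS, 10% DMSO final before a Tris stop raised pH to neutrality.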
# human recombinant BACE1 = human recombinant BACE1 (Homo sapiens (Human), UniProt P56817); test: In vitro enzymatic BACE1 FRET assay; format: biochemical; conditions: read-out: IC50 IP (μM) BACE1 enzyme
# Chain of human recombinant BACE1 (P56817 46-501): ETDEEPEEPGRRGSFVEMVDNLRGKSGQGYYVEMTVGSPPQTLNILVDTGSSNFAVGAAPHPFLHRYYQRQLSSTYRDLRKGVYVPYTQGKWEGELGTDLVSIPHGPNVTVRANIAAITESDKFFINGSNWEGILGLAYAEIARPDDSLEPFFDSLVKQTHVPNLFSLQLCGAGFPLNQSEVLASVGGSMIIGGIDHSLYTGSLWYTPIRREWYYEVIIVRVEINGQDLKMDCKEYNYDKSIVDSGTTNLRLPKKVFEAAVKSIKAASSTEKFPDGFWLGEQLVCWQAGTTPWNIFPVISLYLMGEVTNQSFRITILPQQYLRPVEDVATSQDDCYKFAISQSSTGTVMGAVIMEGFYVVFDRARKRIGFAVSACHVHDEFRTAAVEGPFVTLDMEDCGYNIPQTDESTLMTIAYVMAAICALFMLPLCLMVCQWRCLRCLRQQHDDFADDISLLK
# In short: (§1)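 Fluorescence from cleavage of a quenched peptide spanning the BACE site (50 nM) was read at 488 nm excitation, 590 nm emission. Purified enzyme (Ni-NTA) and compound reacted for one hour before a Tris stop shifted pH to neutral.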
# [1] = test system: Aβ40 in conditioned medium of cells stably expressing Amyloid Precursor Protein (APP); test: In vitro BACE-1 cell-based assay (Aβ40 sandwich ELISA); conditions: read-out: IC50 IP (μM) BACE1 cell
# In short: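 Aβ40 in supernatants measured by time-resolved fluorescence sandwich ELISA, with pAb40 as capture and biotin-6E10 as detector antibody, each incubated at 4 °C.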
# human recombinant BACE2 = human recombinant BACE2 (Homo sapiens (Human), UniProt Q9Y5Z0); test: In vitro enzymatic BACE2 FRET assay; format: biochemical; conditions: read-out: IC50 IP (μM) BACE2 enzyme
# Chain of human recombinant BACE2 (Q9Y5Z0 63-518): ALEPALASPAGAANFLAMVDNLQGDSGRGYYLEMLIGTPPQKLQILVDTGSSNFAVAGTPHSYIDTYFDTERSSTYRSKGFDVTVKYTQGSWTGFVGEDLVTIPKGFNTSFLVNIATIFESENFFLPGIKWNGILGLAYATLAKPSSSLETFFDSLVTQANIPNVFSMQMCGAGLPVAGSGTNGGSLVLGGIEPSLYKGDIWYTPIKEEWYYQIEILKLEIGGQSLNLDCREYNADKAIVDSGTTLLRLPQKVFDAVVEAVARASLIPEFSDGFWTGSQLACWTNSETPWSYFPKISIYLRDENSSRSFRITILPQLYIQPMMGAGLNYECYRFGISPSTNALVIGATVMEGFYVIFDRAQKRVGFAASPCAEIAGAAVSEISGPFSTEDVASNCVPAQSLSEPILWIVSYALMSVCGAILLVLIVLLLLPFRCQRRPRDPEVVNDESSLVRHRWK
# In short: as §1
# Chain of Recombinant Cat D (P07339 65-412): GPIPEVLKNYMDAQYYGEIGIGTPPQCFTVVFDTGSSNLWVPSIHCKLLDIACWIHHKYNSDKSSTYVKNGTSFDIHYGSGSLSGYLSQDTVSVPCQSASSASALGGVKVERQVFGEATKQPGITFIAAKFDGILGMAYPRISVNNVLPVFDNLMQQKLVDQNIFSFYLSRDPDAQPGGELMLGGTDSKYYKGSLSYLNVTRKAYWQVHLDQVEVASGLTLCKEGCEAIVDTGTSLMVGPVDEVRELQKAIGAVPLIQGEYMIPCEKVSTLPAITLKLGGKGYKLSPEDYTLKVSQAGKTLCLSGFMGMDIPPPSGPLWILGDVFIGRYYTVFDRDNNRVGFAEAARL
SMILES,IC50 (Recombinant Cat D) [µM],IC50 (human recombinant BACE1) [µM],IC50 [1] [µM],IC50 (human recombinant BACE2) [µM]
"C#CCOc1ccc(C(=O)Nc2ccc(F)c([C@@]3(CF)N=C(N)S[C@@]4(c5ocnc5C)C[C@@H]34)c2)nc1 [Example 789, N-(3-((1S,5S,6S)-3-amino-5-(fluoromethyl)-1-(4-methyl-1,3-oxazol-5-yl)-2-thia-4-azabicyclo[4.1.0]hept-3-en-5-yl)-4-fluorophenyl)-5-(2-propyn-1-yloxy)-2-pyridinecarboxamide]",835,0.000528,0.0259,0.00936
"CN(C)C(=O)[C@]12C[C@H]1[C@@](CF)(c1cc(NC(=O)c3ccc(Cl)cn3)ccc1F)N=C(N)S2 [Example 790, (1S,5S,6S)-3-amino-5-(5-(((5-chloro-2-pyridinyl)carbonyl)amino)-2-fluorophenyl)-5-(fluoromethyl)-N,N-dimethyl-2-thia-4-azabicyclo[4.1.0]hept-3-ene-1-carboxamide]",792,0.000338,0.0028,< 0.00203
"C#CCOc1cnc2c(Nc3ccc(F)c([C@@]4(C)N=C(N)S[C@@]5(C(=O)NC6CC6)C[C@H]54)c3)ncnc2c1 [Example 791, (1S,5S,6S)-3-amino-N-cyclopropyl-5-(2-fluoro-5-((7-(2-propyn-1-yloxy)pyrido[3,2-d]pyrimidin-4-yl)amino)phenyl)-5-methyl-2-thia-4-azabicyclo[4.1.0]hept-3-ene-1-carboxamide]",317,0.000658,0.00183,0.0712
"C[C@]1(c2cc(NC(=O)c3ccc(Cl)cn3)ccc2F)N=C(N)S[C@@]2(C(=O)NC3CC3)C[C@H]21 [Example 792, (1S,5S,6S)-3-amino-5-(5-(((5-chloro-2-pyridinyl)carbonyl)amino)-2-fluorophenyl)-N-cyclopropyl-5-methyl-2-thia-4-azabicyclo[4.1.0]hept-3-en-1-carboxamide]",134,0.00075,0.000971,< 0.00203
"C#CCOc1ccc(C(=O)Nc2ccc(F)c([C@@]3(CF)N=C(N)S[C@@]4(c5ccon5)C[C@@H]34)c2)nc1 [Example 793, N-(3-((1S,5S,6S)-3-amino-5-(fluoromethyl)-1-(3-isoxazolyl)-2-thia-4-azabicyclo[4.1.0]hept-3-en-5-yl)-4-fluorophenyl)-5-(2-propyn-1-yloxy)-2-pyridinecarboxamide]",482,0.000293,0.0153,0.00477
"C#CCOc1cnc2c(Nc3ccc(F)c([C@@]4(C)N=C(N)S[C@@]5(C(=O)NC6CC6)C[C@H]54)c3)nccc2n1 [Example 794, (1S,5S,6S)-3-amino-N-cyclopropyl-5-(2-fluoro-5-((2-(2-propyn-1-yloxy)pyrido[3,4-b]pyrazin-5-yl)amino)phenyl)-5-methyl-2-thia-4-azabicyclo[4.1.0]hept-3-ene-1-carboxamide]",316,0.000846,0.0012,0.0397
"C[C@]1(c2cc(Nc3nccc4nc(OCc5ncco5)cnc34)ccc2F)N=C(N)S[C@@]2(C(=O)NC3CC3)C[C@H]21 [Example 796, (1S,5S,6S)-3-amino-N-cyclopropyl-5-(2-fluoro-5-((2-(1,3-oxazol-2-ylmethoxy)pyrido[3,4-b]pyrazin-5-yl)amino)phenyl)-5-methyl-2-thia-4-azabicyclo[4.1.0]hept-3-ene-1-carboxamide]",543,0.000859,0.00354,0.0628
"CC(C)(C)NC(=O)[C@]12C[C@H]1[C@@](C)(c1cc(NC(=O)c3ccc(Cl)cn3)ccc1F)N=C(N)S2 [Example 797, (1S,5S,6S)-3-amino-N-tert-butyl-5-(5-(((5-chloro-2-pyridinyl)carbonyl)amino)-2-fluorophenyl)-5-methyl-2-thia-4-azabicyclo[4.1.0]hept-3-ene-1-carboxamide]",147,0.00452,0.0211,< 0.00203
"C#CCOc1cnc(C(=O)Nc2ccc(F)c([C@@]3(C)N=C(N)S[C@@]4(C(=O)NC(C)(C)C)C[C@H]43)c2)cn1 [Example 798, (1S,5S,6S)-3-amino-N-tert-butyl-5-(2-fluoro-5-(((5-(2-propyn-1-yloxy)-2-pyrazinyl)carbonyl)amino)phenyl)-5-methyl-2-thia-4-azabicyclo[4.1.0]hept-3-ene-1-carboxamide]",4.72,0.000294,0.000715,0.0272
"C[C@]1(c2cc(NC(=O)c3cnc(OCc4ncco4)cn3)ccc2F)N=C(N)S[C@@]2(C(=O)NC3CC3)C[C@H]21 [Example 799, (1S,5S,6S)-3-amino-N-cyclopropyl-5-(2-fluoro-5-(((5-(1,3-oxazol-2-ylmethoxy)-2-pyrazinyl)carbonyl)amino)phenyl)-5-methyl-2-thia-4-azabicyclo[4.1.0]hept-3-ene-1-carboxamide]",349,0.000382,0.00075,0.015
"C[C@]1(c2cc(NC(=O)c3cnc(OCC(F)(F)F)cn3)ccc2F)N=C(N)S[C@@]2(C(=O)NC3CC3)C[C@H]21 [Example 800, (1S,5S,6S)-3-amino-N-cyclopropyl-5-(2-fluoro-5-(((5-(2,2,2-trifluoroethoxy)-2-pyrazinyl)carbonyl)amino)phenyl)-5-methyl-2-thia-4-azabicyclo[4.1.0]hept-3-ene-1-carboxamide]",293,0.000711,0.00659,0.0841
"COC[C@]12C[C@H]1[C@@](C)(c1cc(Nc3ncnc4cc(OCc5ncco5)cnc34)cc(F)c1F)N=C(N)S2 [Example 809, N-(3-((1S,5S,6S)-3-amino-1-(methoxymethyl)-5-methyl-2-thia-4-azabicyclo[4.1.0]hept-3-en-5-yl)-4,5-difluorophenyl)-7-(1,3-oxazol-2-ylmethoxy)pyrido[3,2-d]pyrimidin-4-amine]",123,0.000974,0.00181,0.0358
"C[C@]1(c2cc(NC(=O)c3cnc(OCc4ncco4)cn3)cc(F)c2F)N=C(N)S[C@@]2(CF)C[C@H]21 [Example 811, N-(3-((1S,5S,6S)-3-amino-1-(fluoromethyl)-5-methyl-2-thia-4-azabicyclo[4.1.0]hept-3-en-5-yl)-4,5-difluorophenyl)-5-(1,3-oxazol-2-ylmethoxy)-2-pyrazinecarboxamide]",297,0.000676,0.00126,0.0207
"C#CCOc1cnc2c(Nc3ccc(F)c([C@@]4(C)N=C(N)S[C@@]5(C(F)F)C[C@@H]45)c3)nccc2n1 [Example 816, N-(3-((1S,5S,6S)-3-amino-1-(difluoromethyl)-5-methyl-2-thia-4-azabicyclo[4.1.0]hept-3-en-5-yl)-4-fluorophenyl)-2-(2-propyn-1-yloxy)pyrido[3,4-b]pyrazin-5-amine]",73.6,0.000244,0.00122,0.0183
"C[C@]1(c2cc(Nc3nccc4nc(OCc5ncco5)cnc34)ccc2F)N=C(N)S[C@@]2(C(F)F)C[C@@H]12 [Example 817, N-(3-((1S,5S,6S)-3-amino-1-(difluoromethyl)-5-methyl-2-thia-4-azabicyclo[4.1.0]hept-3-en-5-yl)-4-fluorophenyl)-2-(1,3-oxazol-2-ylmethoxy)pyrido[3,4-b]pyrazin-5-amine]",124,0.000706,0.00171,0.0319
"C[C@]1(c2cc(NC(=O)c3ccc(Cl)cn3)ccc2F)N=C(N)S[C@@]2(C(F)F)C[C@@H]12 [Example 818, N-(3-((1S,5S,6S)-3-amino-1-(difluoromethyl)-5-methyl-2-thia-4-azabicyclo[4.1.0]hept-3-en-5-yl)-4-fluorophenyl)-5-chloro-2-pyridinecarboxamide]",152,0.000587,0.00164,< 0.00203
"C#CCOc1cnc2c(Nc3ccc(F)c([C@@]4(C)N=C(N)S[C@@]5(C(F)F)C[C@@H]45)c3)ncnc2c1 [Example 819, N-(3-((1S,5S,6S)-3-amino-1-(difluoromethyl)-5-methyl-2-thia-4-azabicyclo[4.1.0]hept-3-en-5-yl)-4-fluorophenyl)-7-(2-propyn-1-yloxy)pyrido[3,2-d]pyrimidin-4-amine]",34.2,0.000821,0.00175,0.0412
"C#CCOc1cnc(C(=O)Nc2ccc(F)c([C@@]3(C)N=C(N)S[C@@]4(C(F)F)C[C@@H]34)c2)cn1 [Example 820, N-(3-((1S,5S,6S)-3-amino-1-(difluoromethyl)-5-methyl-2-thia-4-azabicyclo[4.1.0]hept-3-en-5-yl)-4-fluorophenyl)-5-(2-propyn-1-yloxy)-2-pyrazinecarboxamide]",60.4,0.000319,0.000495,0.0162
"C[C@]1(c2cc(NC(=O)c3ccc(Cl)cn3)ccc2F)N=C(N)S[C@@]2(CF)C[C@H]21 [Example 821, N-(3-((1S,5S,6S)-3-amino-1-(fluoromethyl)-5-methyl-2-thia-4-azabicyclo[4.1.0]hept-3-en-5-yl)-4-fluorophenyl)-5-chloro-2-pyridinecarboxamide]",1170,0.00298,0.00428,< 0.00203
